In patent US10945931B2, “Shaping keratin fibres using dialdehyde compounds” (The Procter & Gamble Company, priority 2015, dated 2021):

experiment: Hair straightening efficacy on hair switches, expert grading after wash-and-dry cycles; details: 10% treatment, QSP water buffered at pH 10; flat iron 232° C., 8 passes; after 10 wash cycles; 0-10 scale (0 curly, 10 very straight)
Description: The hair straightening efficacy is tested for the crosslinking compositions described herein. Switches of low lift naturally curly hair are employed. These are shampooed with a Pantene clarifying shampoo to ensure the hair is in a clean state with no residues that could affect the end result. The switches are then rinsed. Excess water is removed from the hair by wringing out the switches. The switches are treated with a crosslinking composition; QSP water buffered at pH 10. These ingredients are mixed on a spinner plate for 30 mins. 0.5 g of crosslinking composition per 1 g hair is employed. The crosslinking composition is left on the hair for 30 minutes. After this time, the hair is blow dried and brushed. The switches are then mechanically straightened with a flat iron (at 450° F. [232° C.] with 8 passes.
The switches are then imaged. To simulate durability, the switches are then given one wash-and-dry cycle. One wash-and-dry cycle involves shampooing with a Hairtrition shampoo (Hairtrition Color Protect sulfate-free shampoo from Zotos), rinsing and then drying in a hot box. Once dry the switches are imaged again. The switches are then given 9 further wash-and-dry cycles. Once dry the switches are imaged again. An expert grader gives the images of the switches a score on a 0-10 scale. The scale is a standard scale set as curly hair having 4-5 nodes of curls is a score of 0 and very straight hair is a 10. Thus, the switches are compared to a normal state of hair. Using an expert grader is reliable because the grader is trained on measuring/scaling the configuration of the hair from straight to curly in a consistent way. Numeric data obtained by this method is averaged, and statistical analysis is conducted using JMP statistical software available from the SAS Institute at the […] confidence level. […] However, given similar straightening efficacy the dialdehyde compounds described herein have advantages over glutaraldehyde due to the lower cost of materials and increased safety profile.

| SMILES | Straightening efficacy Mean grade |
| --- | --- |
| O=CCCCC=O [Glutaraldehyde, glutaraldehyde] | 5.00 |
| O=CC(O)CO (stereo not drawn) [Glyceraldehyde] | 2.67 |
| O=CC(O)C(O)C(O)C=O (stereo not drawn) [Pentodialdose, pentodialdose] | 5.33 |
